Test results as given in patent US20170232083A1, “METHODS OF DIAGNOSIS AND TREATMENT OF CELIAC DISEASE IN CHILDREN” (priority 2014, published 2017).

Tests used:
[1] = tested on: PBMC from newly diagnosed / untreated CD children; settings: Liu et al.; cited from earlier work
[2] = tested on: PBMC (polyclonal gluten-specific T cells) of paediatric and adult CD patients; experiment: IFN-γ ELISpot of PBMC after 3 day oral wheat challenge (SFU, % of maximal peptide response, dominance scores, EC50; Examples 5-6); format: cell-based, human; settings: for Dominance score 3-5yrs (n = 9): CD children 3-5yrs, n = 9, following wheat challenge; for Dominance score 3-5yrs (n = 9) / Dominance score 6-10yrs (n = 10) / Dominance score 11-18yrs (n = 11): mean percentage of maximal peptide response; for Dominance score 6-10yrs (n = 10): CD children 6-10yrs, n = 10, following wheat challenge; for Dominance score 11-18yrs (n = 11): CD children 11-18yrs, n = 11, following wheat challenge; for Dominance score Mean all ages: CD children, following wheat challenge (Table 9); for Dominance scores 3-5 yrs: children with celiac disease 3-5 yrs after wheat challenge (Table 14); for Dominance scores 6-10 yrs: children with celiac disease 6-10 yrs after wheat challenge (Table 14); for Dominance scores 11-18 yrs: children with celiac disease 11-18 yrs after wheat challenge (Table 14); for Dominance scores Mean all ages: mean of all subjects (Table 14); for IFN-γ ELISpot response: after oral wheat challenge
[3] = tested on: PBMC (polyclonal gluten-specific T cells) of paediatric and adult CD patients; settings: corresponding adult data shown for comparison (14); cited from earlier work
[4] = patient A, 11-17 yrs, cut-off 10 SFU
[5] = patient D, max peptide 30.5 SFU
[6] = patient E, H, 11-17 yrs, cut-off 10 SFU
[7] = patient F, 11-17 yrs, cut-off 10 SFU
[8] = patient G, 11-17 yrs, cut-off 10 SFU
[9] = patient H (HLA-DQ2.5 homozygote), 3-5yrs, cut-off 10 SFU
[10] = patient H, 11-17 yrs, cut-off 10 SFU
[11] = patient ID not given, 11-17 yrs, cut-off 10 SFU
[12] = patient ID not given, max peptide 95 SFU
[13] = patient N, 3-5yrs, cut-off 10 SFU
[14] = patient P, 11-17 yrs, cut-off 21.6 SFU
[15] = patient Q, 11-17 yrs, cut-off 10 SFU
[16] = patient U, H, 11-17 yrs, cut-off 10 SFU
[17] = patient V, 6-10 yrs, cut-off 10 SFU
[18] = patient Y, 6-10 yrs, cut-off 10 SFU
[19] = patient eleven, 6-10 yrs, cut-off 10 SFU
[20] = patient five, max peptide 48 SFU
[21] = patient four, 3-5yrs, cut-off 10 SFU
[22] = patient seven, 6-10 yrs, cut-off 10.5 SFU
[23] = patient ten, 3-5yrs, cut-off 10 SFU
[24] = patient three, 6-10 yrs, cut-off 10.5 SFU
[25] = patient twelve, 11-17 yrs, cut-off 10 SFU
[26] = patient two, 3-5yrs, cut-off 10 SFU
[27] = patient two, max peptide 60 SFU

## PFPQPELPY [DQ2.5-glia-α1a]
[1]
  individual CD children with responses: 3/10

## QPFPQPEQPFPWQ [Peptide W03, contains DQ2.5-glia-w1 and w2]
[2]
  magnitude of T cell responses, HLA-DQ2.5 homozygous vs heterozygous: significantly greater
  Dominance score 3-5yrs (n = 9): 66.6
  Dominance score 6-10yrs (n = 10): 51.5
  Dominance score 11-18yrs (n = 11): 46.5
  Dominance score Mean all ages: 54.2
  Dominance scores 3-5 yrs: 65
  Dominance scores 6-10 yrs: 51
  Dominance scores 11-18 yrs: 46
  Dominance scores Mean all ages: 54
[2]; Example 5
  dominance hierarchy across all age groupings: most dominant three peptides
[2]; Example 5, n=22
  CD children responding (polyclonal T cells after oral wheat challenge): 68.2%
[2]; Example 6
  dominance hierarchy across all age groups: most dominant four peptides
[2]; Example 6, n=22
  CD children responding (polyclonal T cells induced by oral wheat challenge): 68%
[2]; all age groups
  response to native vs deamidated form: Deamidation enhanced the response
[2]; p<0.05, Kruskal Wallis
  IFN-γ ELISpot responses Day 0 prior to vs Day 6 after wheat challenge: Significant gluten-specific responses were observed on Day 6 only
[2]; [4]
  IFN-γ ELISpot response: 5 SFU
[2]; [5]
  Significant response as percentage of maximal peptide SFU: ′′′ (41-70% = ′′′)
[2]; [6]
  IFN-γ ELISpot response: 61 SFU
[2]; patient E, max peptide 224 SFU
  Significant response as percentage of maximal peptide SFU: ′′ (21-40% = ′′)
[2]; [7]
  IFN-γ ELISpot response: 77 SFU
[2]; patient F, max peptide 178 SFU
  Significant response as percentage of maximal peptide SFU: ′′′ (41-70% = ′′′)
[2]; [8]
  IFN-γ ELISpot response: 5 SFU
[2]; [9]
  IFN-γ ELISpot response: 48 SFU
[2]; [10]
  IFN-γ ELISpot response: 6 SFU
[2]; [11]
  IFN-γ ELISpot response: 83 SFU
[2]; [12]
  Significant response as percentage of maximal peptide SFU: + (>70% = +)
[2]; patient J, max peptide 196 SFU
  Significant response as percentage of maximal peptide SFU: ′′′ (41-70% = ′′′)
[2]; patient K, max peptide 53 SFU
  Significant response as percentage of maximal peptide SFU: ′′ (21-40% = ′′)
[2]; patient M, max peptide 48 SFU
  Significant response as percentage of maximal peptide SFU: + (>70% = +)
[2]; [13]
  IFN-γ ELISpot response: 19 SFU
[2]; patient N, max peptide 19 SFU
  Significant response as percentage of maximal peptide SFU: + (>70% = +)
[2]; [14]
  IFN-γ ELISpot response: 43 SFU
[2]; patient P, max peptide 64 SFU
  Significant response as percentage of maximal peptide SFU: ′′′ (41-70% = ′′′)
[2]; [15]
  IFN-γ ELISpot response: 54 SFU
[2]; patient Q, max peptide 97 SFU
  Significant response as percentage of maximal peptide SFU: ′′′ (41-70% = ′′′)
[2]; [16]
  IFN-γ ELISpot response: 34 SFU
[2]; patient U, max peptide 81 SFU
  Significant response as percentage of maximal peptide SFU: ′′′ (41-70% = ′′′)
[2]; [17]
  IFN-γ ELISpot response: 34 SFU
[2]; patient V, max peptide 35 SFU
  Significant response as percentage of maximal peptide SFU: + (>70% = +)
[2]; [18]
  IFN-γ ELISpot response: 8 SFU
[2]; [19]
  IFN-γ ELISpot response: 6 SFU
[2]; [20]
  Significant response as percentage of maximal peptide SFU: + (>70% = +)
[2]; [21]
  IFN-γ ELISpot response: 18 SFU
[2]; patient four, max peptide 44 SFU
  Significant response as percentage of maximal peptide SFU: ′′′ (41-70% = ′′′)
[2]; [22]
  IFN-γ ELISpot response: 4 SFU
[2]; [23]
  IFN-γ ELISpot response: 8 SFU
[2]; [24]
  IFN-γ ELISpot response: 13 SFU
[2]; [25]
  IFN-γ ELISpot response: 17 SFU
[2]; [26]
  IFN-γ ELISpot response: 60 SFU
[2]; [27]
  Significant response as percentage of maximal peptide SFU: + (>70% = +)
[3]
  Dominance scores 18+ yrs: 35

## W13 (LQPFPQPELPYLQP) [Peptide W13]
[2]
  Dominance score 3-5yrs (n = 9): 29.3
  Dominance score 6-10yrs (n = 10): 32.0
  Dominance score 11-18yrs (n = 11): 30.1
  Dominance score Mean all ages: 30.7
  Dominance scores 3-5 yrs: 34
  Dominance scores 6-10 yrs: 32
  Dominance scores 11-18 yrs: 30
  Dominance scores Mean all ages: 32
[3]
  Dominance scores 18+ yrs: 4

## W32 (PFPEQPEQPFPQP) [Peptide W32]
[2]
  Dominance score 3-5yrs (n = 9): 26.9
  Dominance score 6-10yrs (n = 10): 34.4
  Dominance score 11-18yrs (n = 11): 28.2
  Dominance score Mean all ages: 30.2
  Dominance scores 3-5 yrs: 26
  Dominance scores 6-10 yrs: 34
  Dominance scores 11-18 yrs: 28
  Dominance scores Mean all ages: 30
[3]
  Dominance scores 18+ yrs: 0

## QPFPQPQQPIPVQ [Peptide W04]
[2]
  Dominance score 3-5yrs (n = 9): 44.5
  Dominance score 6-10yrs (n = 10): 44.2
  Dominance score 11-18yrs (n = 11): 47.5
  Dominance score Mean all ages: 45.6
  Dominance scores 3-5 yrs: 43
  Dominance scores 6-10 yrs: 44
  Dominance scores 11-18 yrs: 48
  Dominance scores Mean all ages: 45
[2]; [4]
  IFN-γ ELISpot response: 1 SFU
[2]; [5]
  Significant response as percentage of maximal peptide SFU: ′′ (21-40% = ′′)
[2]; [6]
  IFN-γ ELISpot response: 51 SFU
[2]; patient E, max peptide 224 SFU
  Significant response as percentage of maximal peptide SFU: ′′ (21-40% = ′′)
[2]; [7]
  IFN-γ ELISpot response: 40 SFU
[2]; patient F, max peptide 178 SFU
  Significant response as percentage of maximal peptide SFU: ′′ (21-40% = ′′)
[2]; [8]
  IFN-γ ELISpot response: 4 SFU
[2]; [9]
  IFN-γ ELISpot response: 9 SFU
[2]; [10]
  IFN-γ ELISpot response: 4 SFU
[2]; [11]
  IFN-γ ELISpot response: 65 SFU
[2]; [12]
  Significant response as percentage of maximal peptide SFU: ′′′ (41-70% = ′′′)
[2]; patient J, max peptide 196 SFU
  Significant response as percentage of maximal peptide SFU: ′′′ (41-70% = ′′′)
[2]; patient K, max peptide 53 SFU
  Significant response as percentage of maximal peptide SFU: ′′ (21-40% = ′′)
[2]; [13]
  IFN-γ ELISpot response: 5 SFU
[2]; [14]
  IFN-γ ELISpot response: 21 SFU
[2]; [15]
  IFN-γ ELISpot response: 37 SFU
[2]; patient Q, max peptide 97 SFU
  Significant response as percentage of maximal peptide SFU: ′′ (21-40% = ′′)
[2]; [16]
  IFN-γ ELISpot response: 30 SFU
[2]; patient U, max peptide 81 SFU
  Significant response as percentage of maximal peptide SFU: ′′ (21-40% = ′′)
[2]; [17]
  IFN-γ ELISpot response: 11 SFU
[2]; patient V, max peptide 35 SFU
  Significant response as percentage of maximal peptide SFU: ′′ (21-40% = ′′)
[2]; [18]
  IFN-γ ELISpot response: 3 SFU
[2]; [19]
  IFN-γ ELISpot response: 4 SFU
[2]; [20]
  Significant response as percentage of maximal peptide SFU: + (>70% = +)
[2]; [21]
  IFN-γ ELISpot response: 9 SFU
[2]; [22]
  IFN-γ ELISpot response: 13 SFU
[2]; patient seven, max peptide 27 SFU
  Significant response as percentage of maximal peptide SFU: ′′′ (41-70% = ′′′)
[2]; [23]
  IFN-γ ELISpot response: 9 SFU
[2]; [24]
  IFN-γ ELISpot response: 136 SFU
[2]; [25]
  IFN-γ ELISpot response: 12 SFU
[2]; [26]
  IFN-γ ELISpot response: 17 SFU
[2]; [27]
  Significant response as percentage of maximal peptide SFU: ′′ (21-40% = ′′)
[3]
  Dominance scores 18+ yrs: 31

## W07 (QPFPQPEQPFCQQ) [Peptide W07]
[2]
  Dominance score 3-5yrs (n = 9): 38.2
  Dominance score 6-10yrs (n = 10): 20.5
  Dominance score 11-18yrs (n = 11): 16.2
  Dominance score Mean all ages: 22.7
  Dominance scores 3-5 yrs: 40
  Dominance scores 6-10 yrs: 20
  Dominance scores 11-18 yrs: 16
  Dominance scores Mean all ages: 24
[3]
  Dominance scores 18+ yrs: 8

## PQPELPYPQ [DQ2.5-glia-α2]
[1]
  individual CD children with responses: 0/10

## W05 (QPFPQPEQPFSQQ) [Peptide W05]
[2]
  Dominance score 3-5yrs (n = 9): 23.4
  Dominance score 6-10yrs (n = 10): 33.3
  Dominance score 11-18yrs (n = 11): 27.1
  Dominance score Mean all ages: 28.6
  Dominance scores 3-5 yrs: 23
  Dominance scores 6-10 yrs: 33
  Dominance scores 11-18 yrs: 27
  Dominance scores Mean all ages: 28
[3]
  Dominance scores 18+ yrs: 15

## W16 (FPQPEQEFPQPQQ) [Peptide W16]
[2]
  Dominance score 3-5yrs (n = 9): 19.8
  Dominance score 6-10yrs (n = 10): 47.3
  Dominance score 11-18yrs (n = 11): 26.1
  Dominance score Mean all ages: 32.6
  Dominance scores 3-5 yrs: 23
  Dominance scores 6-10 yrs: 47
  Dominance scores 11-18 yrs: 26
  Dominance scores Mean all ages: 33
[3]
  Dominance scores 18+ yrs: 0
